Measured values taken from patent publication US5362497A, “Transdermal therapeutic composition” (priority 1989, dated 1994).

Legend:
Assay type in all cases: in vivo, SD rats
[1] = tested on: hypertensive reaction induced by angiotensin I; assay: Transdermal absorption test: inhibition of hypertensive reaction induced by angiotensin I in rats
Method: Using 9-week-old male SD rats, the transdermal therapeutic tape (6 mg as compound (I)/rat) was applied to a clipped area (6 cm^2) of the abdominal skin and the area of exposure was covered by the occluded dressing method. The transdermal absorption effect was evaluated daily by monitoring the inhibition rate (%) against hypertensive reaction induced by angiotensin I. Angiotensin I was administered in an intravenous dose of 300 ng/kg (rats).
Using 9-week-old male SD rats, the transdermal therapeutic tape (9 mg as compound (I)/rat) was applied to a clipped area (6 cm^2) of the abdominal skin and the area of exposure was covered by the occluded dressing method.

[2] = TRH concentration in plasma after transdermal application (radioimmunoassay); details: for concentration at 0.5 h: 0.5 h after administration; for concentration at 1 h: 1 h after administration; for concentration at 2 h: 2 h after administration; for concentration at 4 h: 4 h after administration; for concentration at 6 h: 6 h after administration
Method: The above transdermal therapeutic composition was put on a clipped abdomen of male SD rats (7-week-old, 240 to 270 g, 4 heads) and fixed with a surgical tape. After 0.5, 1, 2, 4, 6 and 24 hours, the blood was collected from the tail vein. After the blood was treated with heparin, 50 μl of a reagent (aqueous solution containing 0.01 g/l of 8-hydroxyquinoline sulfate, 0.15 g/l of EDTA-2Na and 0.05 g/l of Tween 20) was added to 0.5 ml of the blood to separate the plasma. The TRH concentration in the plasma was determined by the below-mentioned radioimmunoassay. To 100 μl of the separated plasma were added 100 μl of 0.7% bovine serum albumin, 100 μl of anti-TRH antibody (500-fold dilution) and 100 μl of ^125 I-labeled TRH (about 10000 dpm), and the resulting mixture was incubated at 4° C. for 3 days. The secondary antibody (100 μl of anti-γ-globulin serum and 100 μl of normal rabbit serum) was then added, and the mixture was incubated at 4° C. for 1 day. The supernatant was removed by centrifugation at 3000 rpm, and the radioactivity of the precipitate was determined by a γ counter.
On the other hand, 10% polyvinyl alcohol gel (pH 4, buffered with 0.01M citric acid-0.01M disodium phosphate) containing 2% TRH was formulated to make the diameter and thickness 3.2 cm and 0.1 cm respectively (sticking area: 8 cm^2; TRH content: 16 mg), and applied to SD rats (4 heads) in the same manner as mentioned above. The TRH concentration in the plasma was determined by the radioimmunoassay in the same manner as mentioned above.

[3] = Molsidomine concentration in plasma after transdermal application (HPLC)
Method: The above transdermal therapeutic composition was put on a clipped abdomen of male SD rats (7-week-old, 240 to 270 g, 5 heads) and fixed with a surgical tape. After 1, 2, 4, 6 and 24 hours, the blood was collected from the tail vein, and the concentration of molsidomine in the plasma was determined by HPLC.
On the other hand, 0.5 g of molsidomine was dissolved in 3 g of propylene glycol, and 0.35 g of the solution was absorbed into a rayon web of nonwoven fabric and applied to SD rats in the same manner as mentioned above.

[4] = Vinpocetine concentration in plasma after transdermal application (HPLC)
Method: The above transdermal therapeutic composition was put on a clipped abdomen of male SD rats (7-week-old, 240 to 270 g, 4 heads) and fixed with a surgical tape. Just before the administration and after 0.5, 1, 2, 4, 6 and 24 hours, the blood was collected from the tail vein. After the blood was treated with heparin, the plasma was separated. The concentration of vinpocetine in the plasma was determined by HPLC after the plasma was cleaned up by Sep-Pak C18 (Waters).
On the other hand, 0.35 g of 4% aqueous suspension of vinpocetine was absorbed into a web of nonwoven fabric and applied to SD rats in the same manner as mentioned above.

[5] = Example 1 tape, 6 mg as compound (I)/rat
[6] = Example 2 tape, procedure of Example 1
[7] = Example 3 tape, procedure of Example 1
[8] = Example 4 tape, 9 mg as compound (I)/rat
[9] = rat, plasma, topical or ocular, Example 6 composition
[10] = rat, plasma, topical or ocular, comparison: 10% polyvinyl alcohol gel pH 4, 2% TRH (16 mg), 8 cm^2

Q: For `O=C(O)CN1C(=O)[C@@H](N[C@@H](CCCCC2CCNCC2)C(=O)O)CSc2ccccc21` [Compound (I), (R)-3-[(S)-1-carboxy-5-(4-piperidyl)pentyl]amino-4-oxo-2,3,4,5-tetrahydro-1,5-benzothiazepine-5-acetic acid], which “duration of effect (inhibition of hypertensive reactivity induced by angiotensin I)” value [1, 5] is on record?
A: > 24 h

Q: What about the transdermal absorption [1, 5] of the same molecule?
A: sufficiently absorbed transdermally

Q: And the “initiation time of 80% inhibition against hypertensive reactivity induced by angiotensin I” value ([1]; Example 1 tape, 6 mg as compound (I)/rat, abdominal skin 6 cm^2, angiotensin I 300 ng/kg i.v.)?
A: five

Q: What about the “inhibition against hypertensive reactivity induced by angiotensin I” value ([1]; Example 1 tape, 6 mg as compound (I)/rat, five hours after administration) of the same molecule?
A: 80%

Q: What about the “duration of effect (inhibition of hypertensive reaction by angiotensin I)” value [1, 6] of the same molecule?
A: > 24 h

Q: And the “initiation time of 80% inhibition against hypertensive reaction by angiotensin I” value [1, 6]?
A: three

Q: What about the transdermal absorption [1, 6] of the same molecule?
A: sufficiently absorbed transdermally

Q: What about the “inhibition against hypertensive reaction by angiotensin I” value ([1]; Example 2 tape, three hours after administration) of the same molecule?
A: 80%

Q: What about the “inhibition against hypertensive reaction by angiotensin I” value ([1]; Example 3 tape, five hours after administration) of the same molecule?
A: 80%

Q: And the “duration of effect (inhibition of hypertensive reaction by angiotensin I)” value [1, 7]?
A: > 24 h

Q: What about the “initiation time of 80% inhibition against hypertensive reaction by angiotensin I” value [1, 7] of the same molecule?
A: five

Q: And the transdermal absorption [1, 7]?
A: sufficiently absorbed transdermally

Q: What about the “duration of effect (inhibition of hypertensive reactivity by angiotensin I)” value [1, 8] of the same molecule?
A: > 24 h

Q: What about the transdermal absorption [1, 8] of the same molecule?
A: sufficiently absorbed transdermally

Q: What about the “initiation time of 80% inhibition against hypertensive reactivity by angiotensin I” value ([1]; Example 4 tape, 9 mg as compound (I)/rat, abdominal skin 6 cm^2) of the same molecule?
A: five

Q: What about the “inhibition against hypertensive reactivity by angiotensin I” value ([1]; Example 4 tape, 9 mg as compound (I)/rat, five hours after administration) of the same molecule?
A: 80%

Q: Which “TRH concentration in the plasma (in words)” value ([2]; Example 6 composition) does the source give for `NC(=O)[C@@H]1CCCN1C(=O)[C@H](Cc1cnc[nH]1)NC(=O)[C@@H]1CCC(=O)N1` [TRH, L-pyroglutamyl-L-histidyl-L-prolinamide] here?
A: rapidly increased

Q: What about the “TRH concentration in the plasma (in words)” value ([2]; comparison: 10% polyvinyl alcohol gel pH 4, 2% TRH (16 mg), 8 cm^2) of the same molecule?
A: very low

Q: What about the concentration at 0.5 h [2, 9] of the same molecule?
A: 59 ng/mL

Q: And the concentration at 1 h [2, 9]?
A: 88.9 ng/mL

Q: What about the concentration at 2 h [2, 9] of the same molecule?
A: 110 ng/mL

Q: And the concentration at 4 h [2, 9]?
A: 391 ng/mL

Q: What about the concentration at 6 h [2, 9] of the same molecule?
A: 326 ng/mL

Q: What about the concentration at 24 h ([2]; rat, plasma, topical or ocular, Example 6 composition, 24 h after administration) of the same molecule?
A: 82.4 ng/mL

Q: What about the Cmax ([2]; rat, plasma, topical or ocular, Example 6 composition, read-out: maximum concentration in the plasma) of the same molecule?
A: ~400 ng/mL

Q: And the Tmax ([2]; rat, plasma, topical or ocular, Example 6 composition, read-out: time of maximum concentration in the plasma)?
A: 4 h

Q: And the concentration at 0.5 h [2, 10]?
A: 8.3 ng/mL

Q: And the concentration at 1 h [2, 10]?
A: 8 ng/mL

Q: And the concentration at 2 h [2, 10]?
A: 4.5 ng/mL

Q: What about the concentration at 4 h [2, 10] of the same molecule?
A: 3 ng/mL

Q: And the concentration at 6 h [2, 10]?
A: 1.8 ng/mL

Q: For `CCOC(=O)[N-]c1cn(N2CCOCC2)n[o+]1` [molsidomine, N-ethoxycarbonyl-3-morpholinosydnonimine], which “concentration of molsidomine in the blood (in words)” value ([3]; Example 5 composition) is on record?
A: a high concentration of molsidomine in the blood was observed

Q: What about the “concentration of molsidomine in the plasma” value ([3]; comparison: solution of 0.5 g molsidomine in 3 g propylene glycol, 0.35 g on nonwoven fabric) of the same molecule?
A: below the detection limit

Q: What about the concentration at 1 h ([3]; rat, plasma, topical or ocular, Example 5 composition, 1 h after administration) of the same molecule?
A: 123 ng/mL

Q: What about the concentration at 2 h ([3]; rat, plasma, topical or ocular, Example 5 composition, 2 h after administration) of the same molecule?
A: 235 ng/mL

Q: And the concentration at 4 h ([3]; rat, plasma, topical or ocular, Example 5 composition, 4 h after administration)?
A: 451 ng/mL

Q: What about the concentration at 6 h ([3]; rat, plasma, topical or ocular, Example 5 composition, 6 h after administration) of the same molecule?
A: 322 ng/mL

Q: What about the concentration at 24 h ([3]; rat, plasma, topical or ocular, Example 5 composition, 24 h after administration) of the same molecule?
A: 169 ng/mL

Q: With `CCOC(=O)C1=C[C@]2(CC)CCCN3CCc4c(n1c1ccccc41)[C@@H]32` [vinpocetine, apovincamic acid ethyl ester] as the molecule, how does the “concentration of vinpocetine in the plasma (in words)” value ([4]; Example 7 composition) read?
A: rapidly increased, and the required concentration was maintained during a period of 24 hours

Q: What about the “Average concentration in plasma” value ([4]; Example 7 composition, just before administration) of the same molecule?
A: 0 ng/mL

Q: And the “concentration of vinpocetine in the plasma” value ([4]; comparison: 0.35 g of 4% aqueous suspension of vinpocetine on nonwoven fabric)?
A: below the detection limit

Q: What about the concentration at 0.5 h ([4]; rat, plasma, topical or ocular, Example 7 composition, 0.5 h after administration) of the same molecule?
A: 149 ng/mL

Q: And the concentration at 1 h ([4]; rat, plasma, topical or ocular, Example 7 composition, 1 h after administration)?
A: 155 ng/mL

Q: And the concentration at 2 h ([4]; rat, plasma, topical or ocular, Example 7 composition, 2 h after administration)?
A: 80.1 ng/mL

Q: And the concentration at 4 h ([4]; rat, plasma, topical or ocular, Example 7 composition, 4 h after administration)?
A: 60.7 ng/mL

Q: And the concentration at 6 h ([4]; rat, plasma, topical or ocular, Example 7 composition, 6 h after administration)?
A: 74.1 ng/mL

Q: And the concentration at 24 h ([4]; rat, plasma, topical or ocular, Example 7 composition, 24 h after administration)?
A: 64.3 ng/mL
